This passage reports TGI results from PubChem BioAssay (NCI).

Experiment in all cases: inhibition of tumour cell growth, NCI panel, 48 h
In assay [1] the test system is HCT-116 colon.
Assay [2] concerns 786-0 renal.
Assay [3] relates to A498 renal.
The test system of assay [4] is NCI/ADR-RES ovarian.
The subject of assay [5] is HL-60(TB) leukemia.
Assay [6] relates to SR leukemia.
The subject of assay [7] is SNB-75 CNS.
The test system of assay [8] is IGROV1 ovarian.
For assay [9], the system named is TK-10 renal.
The subject of assay [10] is SF-295 CNS.
Assay [11] deals with CAKI-1 renal.
The test system of assay [12] is SNB-19 CNS.
Assay [13] relates to MOLT-4 leukemia.
Assay [14] concerns NCI-H460 lung.

SMILES strings stand for the structures.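 48-hour exposure; five concentrations; linearly interpolated endpoints. TGI marks complete inhibition of growth.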 Bounds are passed on as bounds.

`CC(=O)OC1COC(n2c(-c3ccc(Cl)cc3)cc(-c3ccccc3)c(C#N)c2=S)C(OC(C)=O)C1OC(C)=O` (stereo not given): the TGI in assay [1] was above 51.7 µM; in assay [2] it was 26.8 µM; in assay [3], 34.1 µM; in assay [4] it was 33.8 µM; in assay [5] it was above 89.9 µM; in assay [6], above 82.8 µM. For the same compound, the TGI in assay [7] is above 100 µM; in assay [8], above 31.6 µM; in [9], above 73.4 µM; in assay [10], 31.7 µM; in assay [11] it was 50 µM; in assay [12] it was above 79.6 µM. For the same compound, the TGI in [13] is above 100 µM; in assay [14] it was above 66.8 µM.
In the case of `CCCCCC(CO)C(O)(C(F)(F)F)C(F)(F)F` (stereo not given), the TGI in assay [1], in [2], in assay [3], in [4], in assay [5] and in assay [6] was above 10 µM throughout. Further, the TGI in [7], in [8], in [9], in assay [10], in assay [11] and in assay [12] was above 10 µM in each case. For the same compound, the TGI in assay [13] and in assay [14] was above 10 µM throughout.
As to `CC1(C)CCCCCCC2OC2CCCCCC(C)(C)C1=O` (stereo not given), the TGI in assay [1] was above 100 µM; in assay [2], above 100 µM; in [3], above 100 µM; in assay [4], above 88.2 µM; in [5], 57 µM; in assay [6], above 70 µM. The TGI was above 100 µM in assay [7]; above 100 µM in [8]; above 100 µM in assay [9]; above 67.3 µM in assay [10]; above 100 µM in assay [11]; above 100 µM in [12]. In addition, the results for the TGI in assay [13] and in assay [14] were 61.2 µM and above 100 µM, respectively.
Consider `COc1cc(Nc2cnc3cc(F)c(F)cc3n2)cc(OC)c1`, for which the TGI in assay [1], in assay [2], in assay [3], in [4], in assay [5] and in [6] was above 100 µM each time. Further, the TGI in [7] is 53.4 µM; in [8], above 100 µM; in [9], above 100 µM; in assay [10], above 100 µM; in [11], above 100 µM; in [12] it was above 100 µM. In addition, the TGI in assay [13] and in [14] was above 100 µM each time.
Regarding `COc1c2ccccc2c(OC)c2nc(C)ccc12`, the TGI is above 100 µM in [1]; above 100 µM in assay [2]; above 100 µM in assay [3]; above 100 µM in assay [4]; 61.8 µM in assay [5]; above 79.5 µM in assay [6]. The TGI in [7], in assay [8], in assay [9], in [10], in assay [11] and in assay [12] was above 100 µM throughout. Also, the TGI in [13] was 99.7 µM; in [14] it was above 100 µM.
On to `C[C@H]1C[C@H](C)c2ccccc2N(C)C1=Nc1ccccc1`, for which the TGI in assay [1] is 46.3 µM; in [2], 64 µM; in assay [3] it was 84.4 µM; in assay [4] it was above 100 µM; in assay [5], 48.3 µM; in assay [6], 58.3 µM. In addition, the TGI is above 100 µM in assay [7]; 78 µM in assay [8]; 55.6 µM in [9]; above 100 µM in [10]; above 100 µM in [11]; above 100 µM in assay [12]. Also, the TGI in assay [13] came to 72.7 µM; in assay [14], 64.4 µM.
For `COc1ccc(C(c2c[nH]c3ccc(Br)cc23)c2c[nH]c3ccc(Br)cc23)cc1`, the TGI in [1] came to 0.349 µM; in assay [2], 1.07 µM; in assay [3], 2.29 µM; in assay [4], 4.34 µM; in assay [5] it was 0.346 µM; in [6], 0.418 µM. Moreover, the TGI in assay [7] is 1.54 µM; in assay [8] it was 0.803 µM; in [9], 2.27 µM; in [10], 1.17 µM; in assay [11] it was 1.64 µM; in [12], 1.76 µM. The TGI in assay [13] was 0.478 µM; in [14] it was 0.361 µM.
On to `Cn1c(NS(=O)(=O)c2ccccc2)nc2ccccc21`, for which the TGI in assay [1], in assay [2], in assay [3], in [4], in assay [5] and in assay [6] was above 100 µM throughout. In addition, the TGI in [7], in [8], in assay [9], in assay [10], in [11] and in assay [12] was above 100 µM throughout. Further, the TGI in assay [13] and in assay [14] was above 100 µM in each case.
With `CCN(CC)C(=S)SNCc1ccc(S(N)(=O)=O)cc1`, the TGI is 27.4 µM in assay [1]; 28 µM in assay [2]; above 100 µM in [3]; 41.8 µM in assay [4]; 22.8 µM in assay [5]; above 64.6 µM in assay [6]. The TGI in assay [7] was 39.5 µM; in assay [8], 26.6 µM; in assay [9] it was above 66 µM; in assay [10] it was 34.9 µM; in [11], 31.3 µM; in [12] it was 34.1 µM. The TGI in assay [13] was above 62.2 µM; in assay [14] it was 34.4 µM.
`C=C(Br)CN(C(C)=O)C1CCCCC1`: the TGI in [1], in assay [2], in assay [3], in assay [4], in assay [5] and in assay [6] was above 100 µM each time. In addition, the TGI in [7], in assay [8], in assay [9], in assay [10], in assay [11] and in assay [12] was above 100 µM in each case. Moreover, the TGI in assay [13] and in assay [14] was above 100 µM each time.
